What was measured:
[1] = system: Bmi-1 protein; test: Sandwich ELISA Assay (Bmi-1 protein level in HT-1080 cells after compound treatment); assay type: cell-based; conditions: Table 1, Bmi-1 sandwich ELISA, read-out: ELISA EC50 value for Bmi-1 protein
How it was run: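 HT-1080 cells exposed to compounds for 40–48 h at 37 °C (0.5% DMSO final), then lysed. Bmi-1 in lysates measured by sandwich ELISA (mouse monoclonal capture, rabbit anti-Bmi-1 detection, HRP anti-rabbit, TMB), read at OD450 with OD570 reference against a recombinant Bmi-1 standard curve (0–8000 pg/mL).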

Row | Structure (SMILES) | melting point | EC50 [1]
1 | Cc1cc(Nc2cc(C#N)cc(-c3c(C(F)F)nc4ccc(F)cn34)n2)cnc1OC(F)F [compound 468, 2-{[6-(difluoromethoxy)-5-methylpyridin-3-yl]amino}-6-[2-(difluoromethyl)-6-fluoroimidazo[1,2-a]pyridin-3-yl]pyridine-4-carbonitrile] | 239 to 241 °C | 10 to 100 nM
2 | Cc1cc(Nc2cc(C#N)cc(-c3c(C)nc4ccc(F)cn34)n2)cnc1OC(F)F [compound 470, 2-{[6-(difluoromethoxy)-5-methylpyridin-3-yl]amino}-6-(6-fluoro-2-methylimidazo[1,2-a]pyridin-3-yl)pyridine-4-carbonitrile] | 219 to 222 °C | 100 to 3000 nM
3 | Cc1cc(Nc2cc(C#N)cc(-c3c(C)nc4c(F)cc(F)cn34)n2)cnc1OC(F)F [compound 471, 2-{[6-(difluoromethoxy)-5-methylpyridin-3-yl]amino}-6-(6,8-difluoro-2-methylimidazo[1,2-a]pyridin-3-yl)pyridine-4-carbonitrile] | 236 to 238 °C | 100 to 3000 nM
4 | Fc1ccc2nc(C(F)F)c(-c3cncc(Nc4ccc(OC(F)F)cc4)n3)n2c1 [compound 473, N-[4-(difluoromethoxy)phenyl]-6-[2-(difluoromethyl)-6-fluoroimidazo[1,2-a]pyridin-3-yl]pyrazin-2-amine] | 167 to 169 °C | < 1 nM
5 | N#Cc1cc(Nc2ccc(OC(F)F)nc2)nc(-n2c(C3CC3)nc3c(F)cc(F)cc32)c1 [compound 478, 2-(2-cyclopropyl-4,6-difluoro-1H-benzimidazol-1-yl)-6-{[6-(difluoromethoxy)pyridin-3-yl]amino}pyridine-4-carbonitrile] | 207 to 209 °C | 10 to 100 nM
6 | Fc1ccc2nc(C(F)F)c(-c3cncc(Nc4ccc(OC(F)F)nc4)n3)n2c1 [compound 479, N-[6-(difluoromethoxy)pyridin-3-yl]-6-[2-(difluoromethyl)-6-fluoroimidazo[1,2-a]pyridin-3-yl]pyrazin-2-amine] | 225 to 227 °C | 1 to 10 nM
7 | Cc1nc2ccc(F)cn2c1-c1cncc(Nc2ccc(OC(F)F)nc2)n1 [compound 480, N-[6-(difluoromethoxy)pyridin-3-yl]-6-(6-fluoro-2-methylimidazo[1,2-a]pyridin-3-yl)pyrazin-2-amine] | 204 to 207 °C | 100 to 3000 nM
8 | Cc1cn2c(-c3cncc(Nc4ccc(C(F)(F)F)cc4)n3)c(C)nc2c(C)n1 [compound 488, N-[4-(trifluoromethyl)phenyl]-6-(2,6,8-trimethylimidazo-[1,2-a]pyrazin-3-yl)pyrazin2-amine] | 102 to 105 °C | 10 to 100 nM
9 | Cc1cn2c(-c3cncc(Nc4ccc(OC(F)F)cc4)n3)c(C)nc2c(C)n1 [compound 489, N-[4-(difluoromethoxy)phenyl]-6-(2,6,8-trimethylimidazo[1,2-a]pyrazin-3-yl)pyrazin-2-amine] | 140 to 141 °C | 1 to 10 nM

More lines, now with the values ahead:

Row | melting point | EC50 [1] | Structure (SMILES)
10 | 285 to 288 °C | 10 to 100 nM | N#Cc1cc(Nc2ccc(C(F)(F)F)nc2)nc(-c2c(C(F)F)nc3ccc(F)cn23)c1 [compound 469, 2-[2-(difluoromethyl)-6-fluoroimidazo[1,2-a]pyridin-3-yl]-6-{[6-(trifluoromethyl)pyridin-3-yl]amino}pyridine-4-carbonitrile]
11 | 180 to 182 °C | 1 to 10 nM | Fc1ccc2nc(C(F)F)c(-c3cncc(Nc4ccc(C(F)(F)F)cc4)n3)n2c1 [compound 472, 6-[2-(difluoromethyl)-6-fluoroimidazo[1,2-a]pyridin-3-yl]-N-[4-(trifluoromethyl)phenyl]pyrazin-2-amine]
12 | 233 to 235 °C | 10 to 100 nM | N#Cc1cc(Nc2ccc(C(F)(F)F)cc2)nc(-n2c(C3CC3)nc3c(F)cc(F)cc32)c1 [compound 474, 2-(2-cyclopropyl-4,6-difluoro-1H-benzimidazol-1-yl)-6-{[4-(trifluoromethyl)phenyl]amino}pyridine-4-carbonitrile]
13 | 168 to 170 °C | 10 to 100 nM | N#Cc1cc(Nc2ccc(OC(F)F)cc2)nc(-n2c(C3CC3)nc3c(F)cc(F)cc32)c1 [compound 475, 2-(2-cyclopropyl-4,6-difluoro-1H-benzimidazol-1-yl)-6-{[4-(difluoromethoxy)phenyl]amino}pyridine-4-carbonitrile]
14 | 229 to 231 °C | 10 to 100 nM | FC(F)c1nc2ccccc2n1-c1cncc(Nc2ccc(C(F)(F)F)cc2)n1 [compound 481, 6-[2-(difluoromethyl)-1H-benzimidazol-1-yl]-N-[4-(trifluoromethyl)phenyl]pyrazin-2-amine]
15 | 213 to 216 °C | 10 to 100 nM | FC(F)Oc1ccc(Nc2cncc(-n3c(C(F)F)nc4ccccc43)n2)cc1 [compound 482, N-[4-(difluoromethoxy)phenyl]-6-[2-(difluoromethyl)-1H-benzimidazol-1-yl]pyrazin-2-amine]
16 | 220 to 222 °C | 10 to 100 nM | Fc1cc(Nc2cncc(-n3c(C(F)F)nc4ccccc43)n2)ccc1OC(F)F [compound 483, N-[4-(difluoromethoxy)-3-fluorophenyl]-6-[2-(difluoromethyl)-1H-benzimidazol-1-yl]pyrazin-2-amine]
17 | 225 to 227 °C | 10 to 100 nM | N#Cc1cc(Nc2ccc(C(F)(F)F)cc2)nc(-n2c(C(F)F)nc3ccccc32)c1 [compound 484, 2-[2-(difluoromethyl)-1H-benzimidazol-1-yl]-6-{[4-(trifluoromethyl)phenyl]amino}pyridine-4-carbonitrile]
18 | 289 to 291 °C | 100 to 3000 nM | Fc1ccc2nc(C3CCC3)n(-c3cncc(Nc4ccc(C(F)(F)F)cc4)n3)c2c1 [compound 485, 6-(2-cyclobutyl-6-fluoro-1H-benzimidazol-1-yl)-N-[4-(trifluoromethyl)phenyl]pyrazin-2-amine]
19 | 197 to 199 °C | 10 to 100 nM | Fc1ccc2nc(C(F)F)n(-c3cncc(Nc4ccc(C(F)(F)F)cc4)n3)c2c1 [compound 486, 6-[2-(difluoromethyl)-6-fluoro-1H-benzimidazol-1-yl]-N-[4-(trifluoromethyl)phenyl]pyrazin-2-amine]
20 | 237 to 238 °C | 10 to 100 nM | Cc1cn2c(-c3cc(C#N)cc(Nc4ccc(C(F)(F)F)cc4)n3)c(C)nc2c(C)n1 [compound 487, 2-{[4-(trifluoromethyl)phenyl]amino}-6-(2,6,8-trimethylimidazo[1,2-a]pyrazin-3-yl)pyridine-4-carbonitrile]
21 | 150 to 152 °C | 100 to 3000 nM | Cc1cn2c(-c3cc(C#N)cc(Nc4ccc(C(F)(F)F)cc4)n3)c(C3CC3)nc2c(C)n1 [compound 491, 2-(2-cyclopropyl-6,8-dimethylimidazo[1,2-a]pyrazin-3-yl)-6-{[4-(trifluoromethyl)phenyl]amino}pyridine-4-carbonitrile]
22 | 209 to 211 °C | 10 to 100 nM | Cc1nc2cc(F)c(F)cc2n1-c1cncc(Nc2ccc(C(F)F)cc2)n1 [compound 501, 6-(5,6-difluoro-2-methyl-1H-benzimidazol-1-yl)-N-[4-(difluoromethyl)phenyl]pyrazin-2-amine]
